Test results published in PubChem BioAssay AID1963976 (Molecular Pharmacology Branch, DTP, NCI, 2024).
Values joined by “and” are separate entries in the source; they are usually repeats but may differ in a detail not shown here. Equal values may be shown once.

Test system: 435261-313-R-J1-PDC tumor spheroid viability
Assay: Anticancer human tumor 435261-313-R-J1-PDC patient-derived colon adenocarcinoma cell line growth inhibition [PI3K]
Details: spheroids with HUVEC and MSC; for viability, T/C: stronger effect = lower value
In short: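 Three cell types, namely tumor cells, endothelial cells and mesenchymal stem cells, formed each spheroid. Combinations with four PI3K inhibitors were screened at clinically achievable concentrations decreasing by half-log, and spheroid viability was recorded.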

[1] = curve of first compound, second compound 0.00316 µM
[2] = curve of first compound, second compound 0.01 µM
[3] = curve of first compound, second compound 0.0316 µM
[4] = curve of first compound, second compound 0.1 µM
[5] = curve of first compound, second compound 0.316 µM
[6] = curve of first compound, second compound 1 µM
[7] = second compound 0.00316 µM, first compound 0.00316 µM
[8] = second compound 0.00316 µM, first compound 0.01 µM
[9] = second compound 0.00316 µM, first compound 0.0316 µM
[10] = second compound 0.00316 µM, first compound 0.1 µM
[11] = second compound 0.00316 µM, first compound 0.316 µM
[12] = second compound 0.00316 µM, first compound 1 µM
[13] = second compound 0.01 µM, first compound 0.00316 µM
[14] = second compound 0.01 µM, first compound 0.01 µM
[15] = second compound 0.01 µM, first compound 0.0316 µM
[16] = second compound 0.01 µM, first compound 0.1 µM
[17] = second compound 0.01 µM, first compound 0.316 µM
[18] = second compound 0.01 µM, first compound 1 µM
[19] = second compound 0.0316 µM, first compound 0.00316 µM
[20] = second compound 0.0316 µM, first compound 0.01 µM
[21] = second compound 0.0316 µM, first compound 0.0316 µM
[22] = second compound 0.0316 µM, first compound 0.1 µM
[23] = second compound 0.0316 µM, first compound 0.316 µM
[24] = second compound 0.0316 µM, first compound 1 µM
[25] = second compound 0.1 µM, first compound 0.00316 µM
[26] = second compound 0.1 µM, first compound 0.01 µM
[27] = second compound 0.1 µM, first compound 0.0316 µM
[28] = second compound 0.1 µM, first compound 0.1 µM
[29] = second compound 0.1 µM, first compound 0.316 µM
[30] = second compound 0.1 µM, first compound 1 µM
[31] = second compound 0.316 µM, first compound 0.00316 µM
[32] = second compound 0.316 µM, first compound 0.01 µM
[33] = second compound 0.316 µM, first compound 0.0316 µM
[34] = second compound 0.316 µM, first compound 0.1 µM
[35] = second compound 0.316 µM, first compound 0.316 µM
[36] = second compound 0.316 µM, first compound 1 µM
[37] = second compound 1 µM, first compound 0.00316 µM
[38] = second compound 1 µM, first compound 0.01 µM
[39] = second compound 1 µM, first compound 0.0316 µM
[40] = second compound 1 µM, first compound 0.1 µM
[41] = second compound 1 µM, first compound 0.316 µM
[42] = second compound 1 µM, first compound 1 µM
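Further: spheroids exposed to compounds for 7 days.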

CCN1CCN(Cc2ccc(Nc3ncc(F)c(-c4cc(F)c5nc(C)n(C(C)C)c5c4)n3)nc2)CC1 + CC(Nc1ccc2c(c1)OCCn1cc(N3C(=O)OCC3C(F)F)nc1-2)C(N)=O
IC50 [1]: 124 nM | IC50 [2]: 30.8 nM | IC50 [3]: 20.6 nM | IC50 [4]: < 3.16 nM | IC50 [5]: < 3.16 nM | IC50 [6]: < 3.16 nM | viability, T/C [7]: 94% | viability, T/C [8]: 71.5% | viability, T/C [9]: 53.1% | viability, T/C [10]: 66.9% | viability, T/C [11]: 37% | viability, T/C [12]: 33.9% | viability, T/C [13]: 71.5% | viability, T/C [14]: 103% | viability, T/C [15]: 49.1% | viability, T/C [16]: 46.4% | viability, T/C [17]: 33.8% | viability, T/C [18]: 33.8% | viability, T/C [19]: 73.6% | viability, T/C [20]: 58.5% | viability, T/C [21]: 47.3% | viability, T/C [22]: 29.1% | viability, T/C [23]: 28.3% | viability, T/C [24]: 30.5% | viability, T/C [25]: 37.7% | viability, T/C [26]: 20.3% | viability, T/C [27]: 25.9% | viability, T/C [28]: 21.1% | viability, T/C [29]: 19.8% | viability, T/C [30]: 25.3% | viability, T/C [31]: 17.9% | viability, T/C [32]: 20.8% | viability, T/C [33]: 16.7% | viability, T/C [34]: 16.8% | viability, T/C [35]: 17.2% | viability, T/C [36]: 16% | viability, T/C [37]: 17.1% | viability, T/C [38]: 15.3% | viability, T/C [39]: 14% | viability, T/C [40]: 15.2% | viability, T/C [41]: 15.1% | viability, T/C [42]: 13.4%

C=CC(=O)N1CCN(c2nc(=O)n(-c3c(C)ccnc3C(C)C)c3nc(-c4c(O)cccc4F)c(F)cc23)C(C)C1 (stereo unspecified)
viability, T/C (compound 0.0316 µM): 92% [middle of 4 runs] | viability, T/C (compound 0.316 µM): 109% [middle of 4 runs] | viability, T/C (compound 3.16 µM): 137% and 124% (2×) and 123% | viability, T/C (compound 10 µM): 109% [middle of 4 runs] | IC50 (curve of compound): > 10000 nM

Cn1ncnc1[C@H]1c2n[nH]c(=O)c3cc(F)cc(c23)N[C@@H]1c1ccc(F)cc1 + CC(Nc1ccc2c(c1)OCCn1cc(N3C(=O)OCC3C(F)F)nc1-2)C(N)=O
IC50 [1]: > 100 nM | IC50 [2]: > 100 nM | IC50 [3]: 43.5 nM | IC50 [4]: 0.592 nM | IC50 [5]: < 0.316 nM | IC50 [6]: < 0.316 nM | viability, T/C (second compound 0.00316 µM, first compound 0.000316 µM): 105% | viability, T/C (second compound 0.00316 µM, first compound 0.001 µM): 88.5% | viability, T/C [7]: 102% | viability, T/C [8]: 96.3% | viability, T/C [9]: 83.9% | viability, T/C [10]: 69.4% | viability, T/C (second compound 0.01 µM, first compound 0.000316 µM): 74.4% | viability, T/C (second compound 0.01 µM, first compound 0.001 µM): 85.5% | viability, T/C [13]: 81.7% | viability, T/C [14]: 95.8% | viability, T/C [15]: 68% | viability, T/C [16]: 50.2% | viability, T/C (second compound 0.0316 µM, first compound 0.000316 µM): 67.4% | viability, T/C (second compound 0.0316 µM, first compound 0.001 µM): 81.3% | viability, T/C [19]: 92.6% | viability, T/C [20]: 86.1% | viability, T/C [21]: 53.6% | viability, T/C [22]: 40.4% | viability, T/C (second compound 0.1 µM, first compound 0.000316 µM): 55.6% | viability, T/C (second compound 0.1 µM, first compound 0.001 µM): 42.9% | viability, T/C [25]: 41.9% | viability, T/C [26]: 39.4% | viability, T/C [27]: 36.1% | viability, T/C [28]: 30.7% | viability, T/C (second compound 0.316 µM, first compound 0.000316 µM): 21.6% | viability, T/C (second compound 0.316 µM, first compound 0.001 µM): 20.8% | viability, T/C [31]: 26.2% | viability, T/C [32]: 19.5% | viability, T/C [33]: 20.6% | viability, T/C [34]: 17.1% | viability, T/C (second compound 1 µM, first compound 0.000316 µM): 18.3% | viability, T/C (second compound 1 µM, first compound 0.001 µM): 17.5% | viability, T/C [37]: 17% | viability, T/C [38]: 20.7% | viability, T/C [39]: 20.2% | viability, T/C [40]: 12.5%

CC(C)NCC(C(=O)N1CCN(c2ncnc3c2C(C)CC3O)CC1)c1ccc(Cl)cc1 (stereo unspecified) + CC(Nc1ccc2c(c1)OCCn1cc(N3C(=O)OCC3C(F)F)nc1-2)C(N)=O
IC50 [1]: 5070 nM | IC50 [2]: 3750 nM | IC50 [3]: 2480 nM | IC50 [4]: < 31.6 nM | IC50 [5]: < 31.6 nM | IC50 [6]: < 31.6 nM | viability, T/C [9]: 76.3% | viability, T/C [10]: 77.9% | viability, T/C [11]: 69.5% | viability, T/C [12]: 72.3% | viability, T/C (second compound 0.00316 µM, first compound 3.16 µM): 63.6% | viability, T/C (second compound 0.00316 µM, first compound 10 µM): 31.3% | viability, T/C [15]: 88.2% | viability, T/C [16]: 94.7% | viability, T/C [17]: 73.6% | viability, T/C [18]: 80.1% | viability, T/C (second compound 0.01 µM, first compound 3.16 µM): 54.7% | viability, T/C (second compound 0.01 µM, first compound 10 µM): 18.2% | viability, T/C [21]: 62.3% | viability, T/C [22]: 56.3% | viability, T/C [23]: 50.5% | viability, T/C [24]: 60.8% | viability, T/C (second compound 0.0316 µM, first compound 3.16 µM): 47.3% | viability, T/C (second compound 0.0316 µM, first compound 10 µM): 13.3% | viability, T/C [27]: 48.6% | viability, T/C [28]: 28.7% | viability, T/C [29]: 34.8% | viability, T/C [30]: 31.8% | viability, T/C (second compound 0.1 µM, first compound 3.16 µM): 24.7% | viability, T/C (second compound 0.1 µM, first compound 10 µM): 12.6% | viability, T/C [33]: 21% | viability, T/C [34]: 21.4% | viability, T/C [35]: 18.4% | viability, T/C [36]: 18.7% | viability, T/C (second compound 0.316 µM, first compound 3.16 µM): 19% | viability, T/C (second compound 0.316 µM, first compound 10 µM): 10.6% | viability, T/C [39]: 18.1% | viability, T/C [40]: 15.9% | viability, T/C [41]: 13.8% | viability, T/C [42]: 18.4% | viability, T/C (second compound 1 µM, first compound 3.16 µM): 17.1% | viability, T/C (second compound 1 µM, first compound 10 µM): 10.8%
